Assay results published in US6426105B1, “Use of lysophosphatidylethanolamine (18.1) and lysophosphatidylinositol to retard senescence and to enhance fruit ripening” (Wisconsin Alumni Research Foundation, priority 1997, dated 2002).

Assays:
[1] = test system: partially purified cabbage PLD; assay: Partially purified cabbage PLD activity assay (PEOH release from PC); conditions: for Effect of components of the LPE molecule on PLD activity: FIG. 2; for Effect of different lysophospholipids on PLD activity: FIG. 5
tomato leaves = assay: Retardation of ethephon-induced leaf senescence in tomato plants; type: in vivo, Tomato plants cv. H9144; conditions: ethephon 1000 mg/L ± lysophospholipid 50 mg/L spray; 10 to 14 days after treatment; Mean ± SE
Protocol: Ethephon, also known as Ethrel, (Ethrel is a trademark of Rhone-Poulenc Ag. Co. (Research Triangle Park, N.C.)) is an aqueous formulation that decomposes to ethylene and is used widely to maximize the yield of ripe tomato fruits in once-over harvesting operations. […] Tomato plants cv. H9144 were grown in a greenhouse for two and a half months to serve as sources of leaf samples. Plant were sprayed to runoff with ethephon at 1000 mg/L or with ethephon plus lysophospholipid mixtures as shown below in Table 6. Lysophospholipid solutions at 50 mg/L were prepared in 1% (v/v) ethanol and mixed with ethephon (1000 mg/L). Control plans were sprayed with ethephon alone in 1% (v/v) ethanol. Senescence of treated leaves was quantified 10 to 14 days after treatment by measuring chlorophyll and protein content.

cranberry fruits = assay: Ethylene production of postharvest cranberry fruits after LPE dip; type: in vivo, Vaccinium macrocarpon Ait. 'Stevens'; conditions: for Ethylene production, Relative %: 100 μM, control = 100
Protocol: However, the impact of different acyl chains of LPE on fruit senescence has not been investigated. In the present study, complementary to the effect of different acyl chains of LPE on PLD activity, the inventors investigated the effect of different acyl chains of LPE on ethylene production of cranberry fruits. Fully ripened cranberry fruits (Vaccinium macrocarpon Ait. 'Stevens') were harvested during the fall season and kept in a cold room. […] After two days, berries were incubated in a sealed glass jar for 24 hours in order to measure ethylene production. Ethylene was quantified with a gas chromatograph equipped with a flame ionization detector (Shinadzu 9AM, Shimadzu Corporation, Kyoto, Japan) (3).

[2] = test system: membrane-associated castor bean PLD
[3] = test system: carnation flowering spikes; assay: Vase life of cut carnation flowers; conditions: 25 mg/L; control 27.5 ± 3.3; Mean ± SE
tomato fruits = assay: Retardation of senescence of harvested mature green tomato fruits; type: in vivo, Lycopersicon esculentum cv. H9144; conditions: for Ethylene Production after 7 days / Rotten fruits after 3 weeks (% of total): 100 mg/L in 1% ethanol, 20 min dip; for Ethylene Production after 7 days: control 1.26 ± 0.21, Mean ± SE; for Rotten fruits after 3 weeks (% of total): control 37.2; for ethylene production relative to control: 7 days after treatment
Protocol: Mature green fruits of tomato (Lycopersicon esculentum cv. […]) were harvested from three month old plants. […] The control tomatoes were dipped in distilled water containing 1% ethol. After dipping, the fruits were stored at room temperature for 3 weeks. Production of ethylene gas was measured 7 days after treatment.

tomato plants/fruits = assay: Enhancement of tomato fruit ripening and stability by preharvest spray; type: in vivo, Tomato plants cv. H9478; conditions: 100 mg/L spray 10 days before harvest; for At Harvest, Partial Red fruits (weight % of total): control 13.2; for At Harvest, Green fruits (weight % of total): control 33.2; for 3 Weeks After Harvest, Soft Fruits (non marketable) (weight % of total): control 47.8; for At Harvest, Red fruits (weight % of total): control 53.6
Protocol: This experiment was conducted to compare the effects of […] (18:1) and LPI on fruit ripening. Tomato plants cv. […] were grown in pots for two and one-half months under fluorescent lights. […] All solutions contained 1% ethol and 0.05% […] 309 (Dow Corning Co., Midland, Mich.) as activating agents. Control plants received distilled water containing 1% ethanol and 0.05% […] 309. Fruits were harvested 10 days after treatment and graded into green, partial red, and red (indicating full ripening). […] (see Table 7).

[4] = test system: snapdragon flowering spikes; assay: Vase life and senescence of cut snapdragon spikes; conditions: for Spikes with Wilted Flower Florets after 7 days (% of total): 24 hr; for Spikes with Wilted Flower Florets after 7 days (% of total) / Water Content of Leaf after 18 days (Fresh wt/Dry wt): Mean ± SE; for Water Content of Leaf after 18 days (Fresh wt/Dry wt): control 5.79 ± 0.18; for Vase Life of Spikes (Days when > 50% of spikes remained marketable): control 4; for Leaf water content of spikes: 18 days after treatment; for spikes wilted after 7 days of treatment: range over tested concentrations, control 76%
soluble cabbage PLD = assay: Soluble PLD activity, cabbage leaf extract (radio-labeled PC); type: biochemical, cabbage (Brassica oleracea L. Blue Vintage)
[5] = test system: membrane-associated cabbage PLD; assay: Membrane-associated PLD activity, cabbage leaf extract; type: biochemical, cabbage (Brassica oleracea L. Blue Vintage)
senescing leaves = assay: Leaf chlorophyll content after eight day senescence; type: in vivo; conditions: after eight day senescence (FIG. 6)
Protocol: To evaluate the relative efficacy of various species of lysophospholipids in delaying senescence in leaves, treatment solutions containing lysophosphatidic acid (LPA), lysophosphatidylcholine (LPC),LPE, LPI, or water were applied to leaves. The chlorophyll content of each sample was measured by standard methods (10) after an eight day senescence. The relative chlorophyll contents were expressed as the percentage of the control.

[6] = 200 μM, PC substrate (FIG. 1, 2, 5)

Compound: CCCCCCCC/C=C\CCCCCCCC(=O)O [18:1 fatty acid]
- Effect of components of the LPE molecule on PLD activity [1]: no inhibitory effect

Compound: O=P(O)(O)CCCl [Ethephon (E), ethephon]
- Chlorophyll Content (tomato leaves): 3.65 ± 0.25 mg/g dry wt
- Protein Content (tomato leaves): 58.8 ± 14.7 mg/g dry wt

Compound: CCCCCCCCCCCCCCCC(=O)OCC(O)COP(=O)(O)OCCN (stereo not shown) [LPE16:0]
- Ethylene production, Relative % (cranberry fruits): 92.7%

Compound: CCCCCCCCCCCCCCCCCC(=O)OCC(O)COP(=O)(O)OCCN (stereo not shown) [LPE18:0]
- Ethylene production, Relative % (cranberry fruits): 71.3%

Compound: CCCCCCCCCCCCCC(=O)OCC(O)COP(=O)(O)OCCN (stereo not shown) [LPE 14:0]
- Effect on PLD activity ([1]; 40 and 200 μM, LPE with different acyl chains (FIG. 1)): very little effect
- Ethylene production, Relative % (cranberry fruits): 100.0%

Compound: CCCCCCCC/C=C\CCCCCCCC(=O)OCC(O)COP(=O)(O)OCCN (stereo not shown) [LPE (18:1), lysophosphatidylethanolamine (18:1)]
- Membrane-associated castor bean PLD activity, % of the control [2]: 31%
- Membrane-associated PLD activity, Castor Bean ([2]; 200 μM): 47.0 ± 3.6 nmol min^−1 mg^−1 protein
- Ratio (LPE/Control), Membrane-associated PLD, Castor Bean ([2]; 200 μM): 0.31
- Marketable Flowers after 6 days of treatment (% of total) [3]: 41.7 ± 8.3 % of total
- Ethylene Production after 7 days (tomato fruits): 0.70 ± 0.20 nl/g. hr^1
- Rotten fruits after 3 weeks (% of total) (tomato fruits): 7.7 % of total
- ethylene production relative to control (tomato fruits): about half of the control
- PLD activity, % of the control ([1]; 10 μM (FIG. 3)): 50%
- PLD activity, % of the control ([1]; 40 μM, PC substrate (FIG. 1)): 16%
- PLD activity, % of the control [1, 6]: 11%
- Vmax ([1]; in the presence of LPE (18:1), control Vmax 20.0): 2.9 μmol min^−1 mg^−1 protein
- Km ([1]; read-out: apparent Km for PLD, in the presence of LPE, substrate PC (FIG. 4)): 1700 µM
- Type of PLD inhibition ([1]; substrate concentration varied (FIG. 4)): non-competitive inhibition
- Soluble castor bean PLD activity, % of the control (soluble castor bean PLD): 30%
- Ratio (LPE/Control), Soluble PLD, Castor Bean (soluble castor bean PLD; 200 μM): 0.30
- Soluble PLD activity, Castor Bean (soluble castor bean PLD; 200 μM): 3.1 ± 0.1 nmol min^−1 mg^−1 protein
- Ethylene production, Relative % (cranberry fruits): 59.6%
- decrease in ethylene production (cranberry fruits; 2 days after treatment): 40%
- At Harvest, Partial Red fruits (weight % of total) (tomato plants/fruits): 11.7 weight % of total
- At Harvest, Green fruits (weight % of total) (tomato plants/fruits): 22.9 weight % of total
- 3 Weeks After Harvest, Soft Fruits (non marketable) (weight % of total) (tomato plants/fruits): 33.0 weight % of total
- At Harvest, Red fruits (weight % of total) (tomato plants/fruits): 65.4 weight % of total
- Spikes with Wilted Flower Florets after 7 days (% of total) ([4]; 5 mg/L, control 75.5 ± 10.3): 34.5 ± 5.5 % of total
- Water Content of Leaf after 18 days (Fresh wt/Dry wt) ([4]; 5 mg/L): 7.81 ± 0.22 Fresh wt/Dry wt
- Spikes with Wilted Flower Florets after 7 days (% of total) ([4]; 10 mg/L): 30.0 ± 5.5 % of total
- Vase Life of Spikes (Days when > 50% of spikes remained marketable) ([4]; 10 mg/L): 12 days
- Spikes with Wilted Flower Florets after 7 days (% of total) ([4]; 25 mg/L): 38.7 ± 8.5 % of total
- Leaf water content of spikes [4]: higher than that of LPEegg and water-treated spikes
- spikes wilted after 7 days of treatment [4]: 30-39%
- Ratio (LPE/Control), Soluble PLD, Cabbage (soluble cabbage PLD; 200 μM): 0.51
- Soluble PLD activity, Cabbage (soluble cabbage PLD; 200 μM, control 45.2 ± 3.5, mean ±SE): 23.1 ± 1.6 nmol min^−1 mg^−1 protein
- Specific activity of soluble cabbage PLD, % of the control (soluble cabbage PLD; in the presence of LPE (18:1)): 51%
- Ratio (LPE/Control), Membrane-associated PLD, Cabbage ([5]; 200 μM): 0.59
- Membrane-associated PLD activity, Cabbage ([5]; 200 μM, control 368.8 ± 6.5, mean ±SE): 217.0 ± 13.0 nmol min^−1 mg^−1 protein
- Specific activity of membrane-associated cabbage PLD, % of the control ([5]; in the presence of LPE (18:1)): 59%

Compound: NCCO [ethanolamine]
- Effect of components of the LPE molecule on PLD activity [1]: no inhibitory effect

Compound: Lysophosphatidylcholine [LPC]
- Effect of different lysophospholipids on PLD activity [1]: did not significantly affect

Compound: lysophosphatidic acid [LPA]
- PLD activity, % of the control [1, 6]: 169%
- Effect of different lysophospholipids on PLD activity [1]: significantly increased PLD activity

Compound: lysophosphatidylglycerol [LPG]
- Effect of different lysophospholipids on PLD activity [1]: did not significantly affect

Compound: lysophosphatidylinositol [LPI]
- Marketable Flowers after 6 days of treatment (% of total) [3]: 44.2 ± 8.3 % of total
- Ethylene Production after 7 days (tomato fruits): 0.71 ± 0.40 nl/g. hr^1
- Rotten fruits after 3 weeks (% of total) (tomato fruits): 17.5 % of total
- ethylene production relative to control (tomato fruits): about half of the control
- PLD activity, % of the control [1, 6]: 31%
- Effect of different lysophospholipids on PLD activity [1]: inhibitory effects somewhat similar to those of LPE
- At Harvest, Partial Red fruits (weight % of total) (tomato plants/fruits): 11.7 weight % of total
- At Harvest, Green fruits (weight % of total) (tomato plants/fruits): 18.3 weight % of total
- 3 Weeks After Harvest, Soft Fruits (non marketable) (weight % of total) (tomato plants/fruits): 25.6 weight % of total
- At Harvest, Red fruits (weight % of total) (tomato plants/fruits): 70.1 weight % of total
- Spikes with Wilted Flower Florets after 7 days (% of total) ([4]; 5 mg/L, control 75.5 ± 10.3): 21.6 ± 7.0 % of total
- Water Content of Leaf after 18 days (Fresh wt/Dry wt) ([4]; 5 mg/L): 7.57 ± 0.52 Fresh wt/Dry wt
- Spikes with Wilted Flower Florets after 7 days (% of total) ([4]; 10 mg/L): 15.0 ± 11.5 % of total
- Vase Life of Spikes (Days when > 50% of spikes remained marketable) ([4]; 10 mg/L): 13 days
- Spikes with Wilted Flower Florets after 7 days (% of total) ([4]; 25 mg/L): 17.8 ± 7.5 % of total
- Leaf water content of spikes [4]: higher than that of LPEegg and water-treated spikes
- spikes wilted after 7 days of treatment [4]: 15-22%
- chlorophyll content of senescing leaves (senescing leaves): much higher than leaves treated with LPA, LPC or LPEegg

Compound: lysophosphatidylserine [LPS]
- Effect of different lysophospholipids on PLD activity [1]: did not significantly affect

Compound: phosphatidylethanolamine [PE]
- PLD activity, % of the control [1, 6]: 126%
